Source: US9133207B2, “Tetrandrine derivatives with substituted 5-carbon, preparation method and use thereof” (Hangzhou Bensheng Pharmaceutical Co., Ltd., priority 2011, dated 2015)
Values after ≈ are worked out from the molar mass of the structure shown.

How the values were obtained:
[1] = Experiment 8-2: body weight of nude mice, preliminary toxicity; settings: M±SD
Protocol: Animal: BALB/c nude mice, 8 weeks, female, purchased from Shanghai Laboratory Animal Center of Chinese Academy of Sciences, China.
The mice are administered from the third day after the inoculation. Each mouse is intragastrically administered in 0.4 ml each time and 3 times a day, at 8:00, 14:00 and 20:00, with 6-hour intervals. The administrations are successive for 10 days. The day before administration is deemed as Day 0 and the body weight and tumor size are determined every 5 days to produce a dynamic plot on body weight and tumor growth. On Day 29, the mice are dissected and the tumors are taken out and weighted. The tumor inhibition rate (%) is calculated after the effect of the medicament based on the tumor inhibition rate of the control group being zero.
The values determined are presented as mean±standard error (M±SD).

[2] = tested on: human non-small cell lung cancer cell line A549 transplanted tumor; experiment: Experiment 8-2: transplanted tumor of human lung cancer in nude mice; format: in vivo, BALB/c nude mice; settings: 50 mg/kg intragastric, 3 times a day, 10 days, Day 29, M±SD
Source text: (§1) Cell lines: human non-small cell lung cancer cell line A549, from China Center for Type Culture Collection (CCTCC);
(§2) The administrations are successive for 10 days.

[3] = tested on: human breast cancer multidrug resistant lines MCF-7/ADR; settings: 2.5 μmol/L tetrandrine; cited from earlier work
[4] = tested on: human non-small cell lung cancer cell line A549 transplanted tumor; experiment: Experiment 8-1: transplanted tumor of human lung cancer in nude mice; format: in vivo, BALB/c nude mice; settings: 50 mg/kg intragastric, 3 times a day, 10 days
Protocol: as §1
(§3) BS-TE-403 and BS-TE-333 (the present invention), and tetrandrine TTD from Jiangxi Jinfurong Pharmaceutical Co., Ltd. All compounds are administered at the dosage of 50 mg/kg weight each time.
Under sterile conditions, the above tumor cells in the logarithmic growth phase are collected and injected by subcutaneous injection in an amount of 5×10^6/0.2 ml/nude mice (cell viability>95%) into the right subaxillary of the nude mice, thus establishing a transplated tumor model of human non-small cell lung cancer in nude mice.
(§4) The experiments are divided into 4 groups: negative control group (solvent group), positive control group (lead compound TTD group), BS-TE-403 group and BS-TE-333 group.
as §2

PC-3 (prostate cancer) = experiment: Solid tumor cell growth inhibition, MTT, 72 h (Example 7); format: cell-based, human; settings: Homo sapiens; 72 h, MTT, PC-3
Method in brief: (§5)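 Each line is plated at 4000 cells per well in high-glucose DMEM supplemented with 10% FBS. After 24 h settling, derivatives at several concentrations are mixed in and cultured 72 h; MTT then gives viable cells, with untreated wells set to 100%.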

[5] = tested on: PANC-1 (pancreatic cancer); experiment: as above; format: cell-based, human; settings: Homo sapiens; 72 h, MTT, PANC-1
Method in brief: as §5

[6] = tested on: Hep-2 (laryngeal carcinoma); experiment: as above; format: cell-based, human; settings: Homo sapiens; 72 h, MTT, Hep 2
Method in brief: as §5

MG63 (osteosarcoma) = experiment: as above; format: cell-based, human; settings: Homo sapiens; 72 h, MTT, MG-63
Method in brief: as §5

[7] = tested on: CaES-17 (esophageal cancer cell); experiment: as above; format: cell-based, human; settings: Homo sapiens, CaEs17; 72 h, MTT, CAES-17
Method in brief: as §5

[8] = tested on: H9 (acute lymphoblastic leukemia, ALL); experiment: Leukemia cell growth inhibition, MTT, 72 h (Example 5); format: cell-based, human; settings: Homo sapiens; 72 h, MTT
Method in brief: (§6)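 Seed 6000 leukemia cells per well in 1640 medium containing 10% FBS. Add test compounds at different concentrations, mix, incubate 72 hours at 37° C in 5% CO2. Determine viable cells by MTT.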

[9] = tested on: Kasumi-1 (acute myeloid leukemia M2 type, AML-M2); experiment: as above; format: cell-based, human; settings: Homo sapiens, Kasumi 1
Method in brief: as §6

[10] = tested on: K562/adr (drug-resistant, chronic myeloid leukemia, CML); experiment: as above; format: cell-based, human; settings: Homo sapiens, K562/Adr; 72 h, MTT
Method in brief: as §6

[11] = tested on: Jurkat (acute lymphoblastic leukemia, ALL); experiment: as above; format: cell-based, human; settings: Homo sapiens, Jurkat; 72 h, MTT
Method in brief: as §6

[12] = tested on: NB4 (acute promyelocytic leukemia, AML); experiment: as above; format: cell-based, human; settings: Homo sapiens; 72 h, MTT
Method in brief: as §6

[13] = tested on: RPMI8226 (multiple myeloma); experiment: Multiple myeloma cell growth inhibition, MTT, 72 h (Example 6); format: cell-based, human; settings: Homo sapiens, RPMI-8226; 72 h, MTT, RPMI8226
Method in brief: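 Viability was read by MTT after 72 h of compound exposure at 37 °C, 5% CO2. Each well held 6000 RPMI8226 cells in 1640 medium containing 10% fetal bovine serum, with derivatives added at various concentrations.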

[14] = Experiment 8-1: body weight of nude mice, preliminary toxicity; format: in vivo, BALB/c nude mice; settings: M±SD
Protocol: as §3, §4, §2

[15] = tested on: RKO (human colon adenocarcinoma cell); experiment: Solid tumor cell growth inhibition, MTT, 72 h (Example 7); format: cell-based; settings: Homo sapiens; 72 h, MTT, RKO
Method in brief: as §5

[16] = tested on: Huh7 (human liver cancer cell); experiment: as above; format: cell-based; settings: Homo sapiens; 72 h, MTT, Huh-7
Method in brief: as §5

[17] = tested on: CNE (nasopharyngeal carcinoma cell); experiment: as above; format: cell-based; settings: Homo sapiens
Method in brief: as §5

A549 (human lung cancer) = experiment: as above; format: cell-based; settings: Homo sapiens; 72 h, MTT, A549
Method in brief: as §5

[18] = tested on: U87 MG (malignant glioma cell); experiment: as above; format: cell-based; settings: Homo sapiens, U-87 MG
Method in brief: as §5

[19] = tested on: Becap37 (human breast cancer cell); experiment: as above; format: cell-based; settings: Homo sapiens; 72 h, MTT, Becap-37
Method in brief: as §5

[20] = tested on: MGC 803 (human gastric cancer cell); experiment: as above; format: cell-based; settings: Homo sapiens
Method in brief: as §5

[21] = tested on: Hela (human cervical cancer cell); experiment: as above; format: cell-based; settings: Homo sapiens; 72 h, MTT, Hela
Method in brief: as §5

[22] = tested on: SK-OV-3 (ovarian cancer cell); experiment: as above; format: cell-based; settings: Homo sapiens
Method in brief: as §5

[23] = tested on: drug-resistant lung cancer cell GLC-82/ADR; settings: while adriamycin is used, without tetrandrine; cited from earlier work
[24] = 50 mg/kg intragastric, 3 times a day, 10 days, final body weight
[25] = nude mice body weight before administration

COc1cc2ncnc(Nc3ccc(F)c(Cl)c3)c2cc1OCCCN1CCOCC1 [Jef, gefitinib, reference compound]
Weight (g) Final [1, 24]: 21.8 ± 0.99 g
Weight (g) Initial [1, 25]: 22.1 ± 0.17 g
Mass of tumor [2]: 883 ± 273.32 mg

COc1ccc2cc1Oc1ccc(cc1)C[C@H]1c3cc(c(OC)cc3CCN1C)Oc1c(OC)c(OC)cc3c1[C@H](C2)N(C)CC3 [TTD, 6,6′,7,12-tetramethoxy-2,2′dimethylberbamine, reference compound]
increase of adriamycin cytotoxicity on drug-resistant tumors [3]: 20.4 times
Mass of tumor ([4]; Day 27, M±SD): 799.00 ± 349.09 mg
Tumor Inhibition rate (%) ([4]; Day 27, control = zero): 13.95%
IC50 (PC-3 (prostate cancer)): 6.01 µg/mL (≈ 9.65 µM)
IC90 (PC-3 (prostate cancer)): 10.8 µg/mL (≈ 17.3 µM)
IC50 [5]: 3.16 µg/mL (≈ 5.07 µM)
IC90 [5]: 7.02 µg/mL (≈ 11.3 µM)
IC50 [6]: 3.88 µg/mL (≈ 6.23 µM)
IC90 [6]: 11.9 µg/mL (≈ 19 µM)
IC50 (MG63 (osteosarcoma)): 1.9 µg/mL (≈ 3.05 µM)
IC90 (MG63 (osteosarcoma)): 3.7 µg/mL (≈ 5.94 µM)
IC50 [7]: 8.34 µg/mL (≈ 13.4 µM)
IC90 [7]: > 16 µg/mL
IC50 [8]: 2.69 µg/mL (≈ 4.32 µM)
IC90 [8]: 6.4 µg/mL (≈ 10.3 µM)
IC50 [9]: 1.69 µg/mL (≈ 2.71 µM)
IC90 [9]: 8.24 µg/mL (≈ 13.2 µM)
IC50 [10]: 0.44 µg/mL (≈ 0.707 µM)
IC90 [10]: 2.14 µg/mL (≈ 3.44 µM)
IC50 [11]: 2.09 µg/mL (≈ 3.36 µM)
IC90 [11]: 9.85 µg/mL (≈ 15.8 µM)
IC50 [12]: 1.6 µg/mL (≈ 2.57 µM)
IC90 [12]: 4.1 µg/mL (≈ 6.58 µM)
IC50 [13]: 0.37 µg/mL (≈ 0.594 µM)
IC90 [13]: 2.54 µg/mL (≈ 4.08 µM)
Weight (g) Final [14, 24]: 19.10 ± 2.02 g
Weight (g) Initial [14, 25]: 22.40 ± 0.26 g
IC50 [15]: 2.72 µg/mL (≈ 4.37 µM)
IC90 [15]: 6.3 µg/mL (≈ 10.1 µM)
IC50 [16]: 5.05 µg/mL (≈ 8.11 µM)
IC90 [16]: 7.81 µg/mL (≈ 12.5 µM)
IC50 [17]: 3.3 µg/mL (≈ 5.3 µM)
IC90 [17]: 6.2 µg/mL (≈ 9.96 µM)
IC50 (A549 (human lung cancer)): 2.9 µg/mL (≈ 4.66 µM)
IC90 (A549 (human lung cancer)): 12.5 µg/mL (≈ 20.1 µM)
IC50 [18]: 0.66 µg/mL (≈ 1.06 µM)
IC90 [18]: 3.58 µg/mL (≈ 5.75 µM)
IC50 [19]: 6.9 µg/mL (≈ 11.1 µM)
IC90 [19]: 15 µg/mL (≈ 24.1 µM)
IC50 [20]: 1.97 µg/mL (≈ 3.16 µM)
IC90 [20]: 7.41 µg/mL (≈ 11.9 µM)
IC50 [21]: 4.05 µg/mL (≈ 6.5 µM)
IC90 [21]: 9.24 µg/mL (≈ 14.8 µM)
IC50 [22]: 9.04 µg/mL (≈ 14.5 µM)
IC90 [22]: > 16 µg/mL

COc1cccc2c1C(=O)c1c(O)c3c(c(O)c1C2=O)C[C@@](O)(C(=O)CO)C[C@@H]3O[C@H]1C[C@H](N)[C@H](O)[C@H](C)O1 [adriamycin]
drug-resistance index [23]: 5.43
